Legend:
PI3Kα = target: T1, PI3Kα (Homo sapiens, UniProt P42336); assay: Kinase enzyme assay (ADP-Glo), PI3Kα; assay type: biochemical; conditions: read-out: In Vitro Enzymatic IC50 PI3Kα
T1 construct: purchased Invitrogen, or BPS Bioscience Inc., or SignalChem PV4788 / 40620 / P27-18H

p110α(E545K)/p85α = target: T2, p110α(E545K)/p85α (Homo sapiens, UniProt P42336, E545K); assay: Kinase enzyme assay (ADP-Glo), PI3Kα (E545K); assay type: biochemical; conditions: read-out: In Vitro Enzymatic IC50 PI3Kα (E545K)
T2 construct: purchased SignalChem P27-15H

p110α(H1047R)/p85α = target: T3, p110α(H1047R)/p85α (Homo sapiens, UniProt P42336, H1047R); assay: Kinase enzyme assay (ADP-Glo), PI3Kα (H1047R); assay type: biochemical; conditions: read-out: In Vitro Enzymatic IC50 PI3Kα (H1047R)
T3 construct: purchased BPS 40641

PC-3 cells = assay: Caspase activity assay, PC-3 cells; assay type: cell-based, human; conditions: maximal caspase activity at 48 h
Procedure: Cells are cultivated and treated with test compounds in 96-well plates as described in the above Cell Culture and Anti-Proliferative Assays section. […] The incubation time can be extended up to overnight (18 h) if the Caspase activity is low. Staurosporine is used as positive control.
Y Axis is expressed as Mean±SD if applicable.

PLC/PRF/5 = assay: cells; conditions: Homo sapiens, PLC-PRF-5, read-out: In Vitro Cellular IC50 PLC/PRF/5
Procedure: (§1) Cells were cultivated at 37° C., 5% CO2 in media containing 10% FBS and 2 mM glutamine Cells were routinely monitored with MycoAlert™ PLUS Mycoplasma Detection Kit (Lonza Walkersville, Inc.) to make sure they were mycoplasma free. Antibiotics (100 U/mL of penicillin and 100 μg/mL of streptomycin) were only added to the media used for compound dilution and cells in 96-well assay plates.
(§2) For a typical screening experiment, cells (100 μL/well) are inoculated into 96 well microtiter plates at plating densities ranging from 2,000 to 30,000 cells/well depending on the doubling time of individual cell lines and assay linearity. […] Suspension cells are treated with test compounds immediately after cell inoculation.
(§3) Test compounds are serially diluted (3-fold or 4-fold, 8-concentration) using the same media and added to the plates (15 to 25 μL/well). After 72 h of cultivation, the plates are assayed for cell cytotoxicity/viability by using the following two methods.
(§4) Cells in plates are fixed with cold trichloroacetic acid (TCA) (50% w/v in DI water, 1/4 volume of the medium in each well), and incubated at 4° C. for 1 h (adherent cells) or 2 h (suspension cells). The plates are washed 5 times (tap water×3, DI water×2) and air-dried. SRB solution 0.4% (w/v) in 1% acetic acid is added to each well (60 μL/well) and the plates are incubated at room temperature for 30 min, then washed with 1% acetic acid solution 4 times, and air-dried.
(§5) The plates are added CellTiter-Glo® Reagent (95 μL/well) and read the luminescence on a BioTek H4 reader per manufacture's protocol.
(§6) The raw data are processed using BioTek's Software Gen5 (v2.03.01) to generate inhibitory IC50 values.

HDAC1 = HDAC1 (Homo sapiens, UniProt Q13547); assay: HDAC enzyme assay, recombinant HDAC1
HDAC6 = target: T4, HDAC6 (Homo sapiens, UniProt Q9UBN7); assay: HDAC enzyme assay, recombinant HDAC6
T4 sequence (Q9UBN7 1-1215): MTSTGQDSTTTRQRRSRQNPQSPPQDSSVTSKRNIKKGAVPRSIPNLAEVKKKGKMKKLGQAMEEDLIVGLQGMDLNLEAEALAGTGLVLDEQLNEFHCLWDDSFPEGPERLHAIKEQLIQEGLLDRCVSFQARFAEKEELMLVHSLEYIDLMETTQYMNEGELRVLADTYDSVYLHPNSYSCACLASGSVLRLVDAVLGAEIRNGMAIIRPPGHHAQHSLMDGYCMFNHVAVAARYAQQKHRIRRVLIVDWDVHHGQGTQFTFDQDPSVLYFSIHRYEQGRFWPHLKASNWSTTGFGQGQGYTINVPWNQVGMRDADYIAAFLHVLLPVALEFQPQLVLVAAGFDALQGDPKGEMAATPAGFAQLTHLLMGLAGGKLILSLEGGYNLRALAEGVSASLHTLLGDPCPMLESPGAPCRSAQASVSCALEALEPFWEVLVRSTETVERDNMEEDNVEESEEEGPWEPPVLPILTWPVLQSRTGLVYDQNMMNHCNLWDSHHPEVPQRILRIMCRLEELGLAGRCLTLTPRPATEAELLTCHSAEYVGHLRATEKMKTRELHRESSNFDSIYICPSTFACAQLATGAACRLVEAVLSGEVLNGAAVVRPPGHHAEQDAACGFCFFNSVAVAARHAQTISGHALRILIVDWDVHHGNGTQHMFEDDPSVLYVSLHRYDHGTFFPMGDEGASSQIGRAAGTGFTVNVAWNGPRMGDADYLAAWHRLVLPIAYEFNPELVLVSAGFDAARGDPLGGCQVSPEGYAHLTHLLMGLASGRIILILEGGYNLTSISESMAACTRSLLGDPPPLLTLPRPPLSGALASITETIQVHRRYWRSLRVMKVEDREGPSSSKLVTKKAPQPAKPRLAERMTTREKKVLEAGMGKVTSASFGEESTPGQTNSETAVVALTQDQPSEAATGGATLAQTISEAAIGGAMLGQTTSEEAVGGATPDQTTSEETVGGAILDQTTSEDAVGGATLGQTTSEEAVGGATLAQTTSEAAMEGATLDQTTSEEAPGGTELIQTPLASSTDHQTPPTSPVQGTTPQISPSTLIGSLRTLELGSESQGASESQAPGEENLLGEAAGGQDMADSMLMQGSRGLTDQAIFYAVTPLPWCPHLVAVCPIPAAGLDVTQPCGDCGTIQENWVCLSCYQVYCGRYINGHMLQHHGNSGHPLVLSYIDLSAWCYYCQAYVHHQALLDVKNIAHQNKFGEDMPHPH

[1] = target: HDAC (HeLa nuclear extracts); assay: HDAC enzyme assay, HeLa nuclear extracts; conditions: read-out: In Vitro Enzymatic IC50 HDAC (HeLa)
Raji = assay: Anti-proliferative assay (cellular IC50), Raji; conditions: Homo sapiens, read-out: In Vitro Cellular IC50 Raji
Procedure: as §1, §2, §3, §4, §5, §6

HuH-7 = assay: Anti-proliferative assay (cellular IC50), HuH-7; conditions: Homo sapiens, Huh-7, read-out: In Vitro Cellular IC50 HuH-7
Procedure: as §1, §2, §3, §4, §5, §6

Daudi = assay: Anti-proliferative assay (cellular IC50), Daudi; conditions: Homo sapiens, read-out: In Vitro Cellular IC50 Daudi
Procedure: as §1, §2, §3, §4, §5, §6

A-431 = assay: Anti-proliferative assay (cellular IC50), A-431; conditions: Homo sapiens, A-431, read-out: In Vitro Cellular IC50 A-431
Procedure: as §1, §2, §3, §4, §5, §6

HCCLM3 = assay: Anti-proliferative assay (cellular IC50), HCCLM3; conditions: Homo sapiens, HCCLM3, read-out: In Vitro Cellular IC50 HCCLM3
Procedure: as §1, §2, §3, §4, §5, §6

HEL9217 = assay: Anti-proliferative assay (cellular IC50), HEL9217; conditions: Homo sapiens, HEL 92.1.7, read-out: In Vitro Cellular IC50 HEL9217
Procedure: as §1, §2, §3, §4, §5, §6

NCI-H460 = assay: Anti-proliferative assay (cellular IC50), NCI-H460; conditions: Homo sapiens, NCI-H460, read-out: In Vitro Cellular IC50 NCI-H460
Procedure: as §1, §2, §3, §4, §5, §6

Sequence of HDAC1 (Q13547 whole entry): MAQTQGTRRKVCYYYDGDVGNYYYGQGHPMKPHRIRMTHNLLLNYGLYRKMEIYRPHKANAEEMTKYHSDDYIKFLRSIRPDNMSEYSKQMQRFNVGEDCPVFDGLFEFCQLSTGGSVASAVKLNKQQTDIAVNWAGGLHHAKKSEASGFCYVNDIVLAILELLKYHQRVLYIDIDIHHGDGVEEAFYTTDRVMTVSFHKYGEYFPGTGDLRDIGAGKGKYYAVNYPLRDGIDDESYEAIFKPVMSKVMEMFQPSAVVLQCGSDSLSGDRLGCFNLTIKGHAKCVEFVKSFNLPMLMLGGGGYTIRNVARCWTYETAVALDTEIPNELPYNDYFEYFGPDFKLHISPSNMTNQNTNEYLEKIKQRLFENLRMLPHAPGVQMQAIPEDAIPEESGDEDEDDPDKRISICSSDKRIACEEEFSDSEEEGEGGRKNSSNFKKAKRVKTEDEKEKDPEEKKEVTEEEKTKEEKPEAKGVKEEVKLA
T1 sequence (P42336 whole entry): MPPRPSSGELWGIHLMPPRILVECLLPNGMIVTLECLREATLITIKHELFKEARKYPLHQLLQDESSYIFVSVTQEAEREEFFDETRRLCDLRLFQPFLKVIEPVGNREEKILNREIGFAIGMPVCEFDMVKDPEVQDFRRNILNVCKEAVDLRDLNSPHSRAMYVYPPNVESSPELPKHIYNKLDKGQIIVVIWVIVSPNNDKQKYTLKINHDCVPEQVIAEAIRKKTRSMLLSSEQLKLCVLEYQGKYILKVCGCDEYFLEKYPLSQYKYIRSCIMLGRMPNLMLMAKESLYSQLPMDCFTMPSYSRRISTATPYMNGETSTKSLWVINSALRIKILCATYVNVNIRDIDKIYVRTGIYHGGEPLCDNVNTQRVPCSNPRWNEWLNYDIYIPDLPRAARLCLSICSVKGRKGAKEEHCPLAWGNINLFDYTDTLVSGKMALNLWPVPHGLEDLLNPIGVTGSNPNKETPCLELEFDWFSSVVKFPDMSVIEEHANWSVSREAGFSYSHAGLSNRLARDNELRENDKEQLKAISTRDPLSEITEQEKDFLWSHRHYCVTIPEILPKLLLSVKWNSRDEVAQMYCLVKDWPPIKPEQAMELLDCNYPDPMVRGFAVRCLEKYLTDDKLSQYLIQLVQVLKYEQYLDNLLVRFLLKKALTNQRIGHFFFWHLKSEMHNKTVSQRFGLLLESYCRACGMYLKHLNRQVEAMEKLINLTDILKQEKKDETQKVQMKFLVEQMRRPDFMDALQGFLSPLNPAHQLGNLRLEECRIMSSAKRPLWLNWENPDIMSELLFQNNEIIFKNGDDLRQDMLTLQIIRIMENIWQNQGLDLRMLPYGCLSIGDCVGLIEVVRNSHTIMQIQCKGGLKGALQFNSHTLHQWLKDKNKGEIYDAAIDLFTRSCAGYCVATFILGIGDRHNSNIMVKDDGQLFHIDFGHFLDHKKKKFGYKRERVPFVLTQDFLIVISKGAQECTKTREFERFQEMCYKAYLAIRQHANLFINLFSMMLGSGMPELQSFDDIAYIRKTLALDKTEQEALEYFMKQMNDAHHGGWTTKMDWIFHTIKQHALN
T1 sequence (P27986 whole entry partner): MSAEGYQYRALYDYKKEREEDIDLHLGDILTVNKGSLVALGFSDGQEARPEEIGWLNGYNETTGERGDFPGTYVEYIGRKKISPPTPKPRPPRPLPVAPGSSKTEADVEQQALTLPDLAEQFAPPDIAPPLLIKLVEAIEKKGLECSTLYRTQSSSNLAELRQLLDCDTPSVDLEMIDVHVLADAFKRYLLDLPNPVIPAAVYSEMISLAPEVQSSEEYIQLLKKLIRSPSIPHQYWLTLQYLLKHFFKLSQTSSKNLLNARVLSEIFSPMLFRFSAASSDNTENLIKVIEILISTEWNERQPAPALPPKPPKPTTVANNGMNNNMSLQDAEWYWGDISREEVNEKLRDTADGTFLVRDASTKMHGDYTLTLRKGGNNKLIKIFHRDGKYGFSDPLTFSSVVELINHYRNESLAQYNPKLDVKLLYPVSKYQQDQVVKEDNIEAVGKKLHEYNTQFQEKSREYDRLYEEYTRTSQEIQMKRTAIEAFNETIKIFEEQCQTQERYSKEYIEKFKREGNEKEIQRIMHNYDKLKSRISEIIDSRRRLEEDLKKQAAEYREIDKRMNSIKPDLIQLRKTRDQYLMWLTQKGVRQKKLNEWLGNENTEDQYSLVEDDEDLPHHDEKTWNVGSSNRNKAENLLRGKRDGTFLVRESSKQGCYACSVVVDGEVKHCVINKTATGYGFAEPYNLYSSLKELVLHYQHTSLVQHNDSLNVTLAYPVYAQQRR
T3 sequence (P42336 whole entry H1047R): as the sequence (P42336 whole entry) above, with H1047R counted along it
T3 sequence (P27986 whole entry partner): as the sequence (P27986 whole entry partner) above
T2 sequence (P42336 whole entry E545K): as the sequence (P42336 whole entry) above, with E545K counted along it
T2 sequence (P27986 whole entry partner): as the sequence (P27986 whole entry partner) above

Structure (SMILES) | IC50 (PI3Kα) | IC50 (p110α(E545K)/p85α) | IC50 (p110α(H1047R)/p85α) | Induction of caspase activity (comparison) (PC-3 cells) | IC50 (PLC/PRF/5) | IC50 (HDAC1) | IC50 (HDAC6) | IC50 [1] | IC50 (Raji) | IC50 (HuH-7) | IC50 (Daudi) | IC50 (A-431) | IC50 (HCCLM3) | IC50 (HEL9217) | IC50 (NCI-H460)
CC(C)n1cnc2c(-c3cccc(OCCCC(=O)NO)c3)nc(N3CCOCC3)nc21 [compound 1] | 1000 to 10000 nM | 1000 to 10000 nM | 1000 to 10000 nM | more potent than vorinostat | 500 to 2000 nM | 10 to 100 nM | 10 to 100 nM | 10 to 100 nM | 500 to 2000 nM | 500 to 2000 nM | < 500 nM | 2000 to 10000 nM | 2000 to 10000 nM | 500 to 2000 nM | 500 to 2000 nM
CS(=O)(=O)N1CCN(Cc2cc3nc(-c4cccc5[nH]ncc45)nc(N4CCOCC4)c3s2)CC1 [GDC-0941, reference compound] | – | – | – | very weak activity | 2000 to 10000 nM | – | – | – | 2000 to 10000 nM | 500 to 2000 nM | < 500 nM | < 500 nM | 500 to 2000 nM | 2000 to 10000 nM | < 500 nM
CCn1c(CN(C)Cc2ccc(C(=O)NO)cc2)nc2c(N3CCOCC3)nc(-c3cnc(N)nc3)nc21 [compound 7] | 10 to 100 nM | 10 to 100 nM | 10 to 100 nM | – | – | 10 to 100 nM | 10 to 100 nM | 100 to 1000 nM | – | – | – | – | – | – | –

— patent US9957270B2, “Fused pyrimidine-based hydroxamate derivatives” (Agency for Science, Technology and Research, priority 2014, dated 2018)
